# Laboratory results published in patent publication US10201531B2, “Indazolyl-oxo-isothiazole compounds” (MOCHIDA PHARMACEUTICAL CO., LTD., priority 2015, dated 2019).
# Tested on: Nrf2
# Test: Evaluation of Nrf2 activation ability (Nrf2d-LacZ / Keap1 HEK293 reporter, Beta-Glo luminescence)
# Type: cell-based, human
# Experimental: HEK293 cells constantly expressing Nrf2d-LacZ (human Nrf2 degron region fused to LacZ; Hirotsu et al, Genes to Cell, Vol. 16, pp. 406-415 (2011)) and human Keap1 were seeded 7,000 cells/27 μl/well on 384-well plates (Corning 384 Well Flat Clear Bottom White Polystyrene TC-Treated Microplates, Cat. #3707), and cultured overnight at 5% CO2, 37° C. in DMEM medium containing 10% FBS, 100 U/mL penicillin and 100 μg/mL streptomycin. 3 μL/well of a 0.1% DMSO solution of the compound of the invention was added to the cells, which were then cultured for 3 hours at 5% CO2, 37° C. Beta-Glo® reagent (Promega, Beta-Glo Assay System, Cat. #E4740) was added 15 μL/well and incubated for 1 hour at room temperature, and luminescence intensity was measured with a luminometer. Using CDDO-Im as a standard, Nrf2 activation ability was calculated given 100% as the luminescence under stimulus with 100 nM CDDO-Im.
# [1] = rated A/B/C, Pharmacological Test Example 1
# [2] = Pharmacological Test Example 1, rated A/B/C
EC50 [1],EC50 [2],SMILES
< 1000 nM,–,"CN1CCOc2cc(-c3cc4cnn(-c5cc(O)n[s+]5[O-])c4cn3)cnc21 (single isomer, unassigned) [Example 243]"
1000 to 5000 nM,–,"[O-][s+]1nc(O)cc1-n1cc2c(n1)CN(Cc1ccccc1)C2 (single isomer, unassigned) [Example 255]"
1000 to 5000 nM,–,"[O-][s+]1nc(O)cc1-n1cc2c(n1)CCN(Cc1ccccc1)C2 (single isomer, unassigned) [Example 256]"
1000 to 5000 nM,–,"[O-][s+]1nc(O)cc1-n1ncc2c1CCN(CC1CCCCC1)C2 (single isomer, unassigned) [Example 257]"
< 1000 nM,–,"[O-][s+]1nc(O)cc1-n1ncc2c1CN(CC1CCCCC1)C2 (single isomer, unassigned) [Example 273]"
1000 to 5000 nM,–,"[O-][s+]1nc(O)cc1-n1cc2c(n1)CN(CC1CCCCC1)C2 (single isomer, unassigned) [Example 275]"
–,1000 to 5000 nM,"CC(C)(C)OC(=O)N1CC=C(c2ccc(-c3cnn(-c4cc(O)n[s+]4[O-])c3)cn2)CC1 (single isomer, unassigned) [Example 449]"
–,< 1000 nM,"CN1CCOc2cc(-c3cnn(-c4cc(O)n[s+]4[O-])c3)cnc21 (single isomer, unassigned) [Example 450]"
–,< 1000 nM,"COc1nc(-c2ccc(N3CCCC3)nc2)ccc1-c1cnn(-c2cc(O)n[s+]2[O-])c1 (single isomer, unassigned) [Example 453]"
1000 to 5000 nM,–,"[O-][s+]1nc(O)cc1-n1ncc2ccccc21 (stereo not shown) [Example 1, 5-(indazol-1-yl)-1-oxo-1,2-thiazol-3-ol]"
< 1000 nM,–,"[O-][s+]1nc(O)cc1-n1ncc2cc(Br)ccc21 (stereo not shown) [Example 2, 5-(5-bromoindazol-1-yl)-1-oxo-1,2-thiazol-3-ol]"
< 1000 nM,–,"COc1cc(-c2ccc3c(cnn3-c3cc(O)n[s+]3[O-])c2)ccn1 (stereo not shown) [Example 3, 5-[5-(2-methoxypyridin-4-yl)indazol-1-yl]-1-oxo-1,2-thiazol-3-ol]"
< 1000 nM,–,"CN1CCOc2cc(-c3ccc4c(cnn4-c4cc(O)n[s+]4[O-])c3)cnc21 (stereo not shown) [Example 5, 5-[5-(4-methyl-2,3-dihydropyrido[3,2-b][1, 4]oxazin-7-yl)indazol-1-yl]-1-oxo-1,2-thiazol-3-ol]"
1000 to 5000 nM,–,COc1ccc(-c2ccc3c(cnn3-c3cc(O)n[s+]3[O-])c2)c(C)n1 (stereo not shown) [Example 6]
1000 to 5000 nM,–,[O-][s+]1nc(O)cc1-n1ncc2ccc(Br)cc21 (stereo not shown) [Example 7]
< 1000 nM,–,CC(C)N1CCOc2cc(-c3ccc4c(cnn4-c4cc(O)n[s+]4[O-])c3)cnc21 (stereo not shown) [Example 8]
1000 to 5000 nM,–,COc1cc(Br)c2cnn(-c3cc(O)n[s+]3[O-])c2c1 (stereo not shown) [Example 9]
< 1000 nM,–,CC1COc2cc(-c3ccc4c(cnn4-c4cc(O)n[s+]4[O-])c3)cnc2N1 (stereo not shown) [Example 10]
1000 to 5000 nM,–,[O-][s+]1nc(O)cc1-n1ncc2cc(F)ccc21 (stereo not shown) [Example 11]
< 1000 nM,–,[O-][s+]1nc(O)cc1-n1ncc2cc(Cl)ccc21 (stereo not shown) [Example 12]
< 1000 nM,–,[O-][s+]1nc(O)cc1-n1ncc2cc(C(F)(F)F)ccc21 (stereo not shown) [Example 14]
1000 to 5000 nM,–,Cc1nn(-c2cc(O)n[s+]2[O-])c2ccc(Cl)cc12 (stereo not shown) [Example 15]
1000 to 5000 nM,–,[O-][s+]1nc(O)cc1-n1ncc2ccccc21 (stereo not shown) [Example 16]
5000 to 10000 nM,–,[O-][s+]1nc(O)cc1-n1ncc2ccccc21 (stereo not shown) [Example 17]
< 1000 nM,–,Cc1cc2cnn(-c3cc(O)n[s+]3[O-])c2cc1C (stereo not shown) [Example 18]
1000 to 5000 nM,–,N#Cc1ccc2c(cnn2-c2cc(O)n[s+]2[O-])c1 (stereo not shown) [Example 19]
1000 to 5000 nM,–,N#Cc1nn(-c2cc(O)n[s+]2[O-])c2ccc(Cl)cc12 (stereo not shown) [Example 21]

EC50 [1],EC50 [2],SMILES
1000 to 5000 nM,–,O=C(c1c(Cl)cccc1Cl)c1nn(-c2cc(O)n[s+]2[O-])c2ccccc12 (stereo not shown) [Example 22]
1000 to 5000 nM,–,Cc1cccc2c1cnn2-c1cc(O)n[s+]1[O-] (stereo not shown) [Example 23]
1000 to 5000 nM,–,COc1ccc2c(cnn2-c2cc(O)n[s+]2[O-])c1 (stereo not shown) [Example 24]
5000 to 10000 nM,–,Cc1ccc2c(cnn2-c2cc(O)n[s+]2[O-])c1 (stereo not shown) [Example 25]
1000 to 5000 nM,–,[O-][s+]1nc(O)cc1-n1ncc2cc(OCc3ccccc3)ccc21 (stereo not shown) [Example 26]
1000 to 5000 nM,–,[O-][s+]1nc(O)cc1-n1ncc2cc(C3CC3)ccc21 (stereo not shown) [Example 27]
1000 to 5000 nM,–,[O-][s+]1nc(O)cc1-n1ncc2cc(-c3ccccc3)ccc21 (stereo not shown) [Example 28]
1000 to 5000 nM,–,[O-][s+]1nc(O)cc1-n1ncc2c(Cl)cccc21 (stereo not shown) [Example 29]
5000 to 10000 nM,–,[O-][s+]1nc(O)cc1-n1ncc2c(OCc3ccccc3)cccc21 (stereo not shown) [Example 30]
1000 to 5000 nM,–,[O-][s+]1nc(O)cc1-n1ncc2ccc(Cl)cc21 (stereo not shown) [Example 31]
1000 to 5000 nM,–,Cc1ccc2cnn(-c3cc(O)n[s+]3[O-])c2c1 (stereo not shown) [Example 32]
1000 to 5000 nM,–,[O-][s+]1nc(O)cc1-n1ncc2ccc(C(F)(F)F)cc21 (stereo not shown) [Example 33]
1000 to 5000 nM,–,Cc1cccc2cnn(-c3cc(O)n[s+]3[O-])c12 (stereo not shown) [Example 34]
1000 to 5000 nM,–,[O-][s+]1nc(O)cc1-n1ncc2cccc(Cl)c21 (stereo not shown) [Example 37]
< 1000 nM,–,[O-][s+]1nc(O)cc1-n1ncc2cc(-c3cccnc3)ccc21 (stereo not shown) [Example 38]
< 1000 nM,–,[O-][s+]1nc(O)cc1-n1ncc2cc(C3=CCC(F)(F)CC3)ccc21 (stereo not shown) [Example 39]
< 1000 nM,–,[O-][s+]1nc(O)cc1-n1ncc2cc(-c3ccccc3Cl)ccc21 (stereo not shown) [Example 40]
1000 to 5000 nM,–,[O-][s+]1nc(O)cc1-n1ncc2cc(-c3cncnc3)ccc21 (stereo not shown) [Example 41]
< 1000 nM,–,[O-][s+]1nc(O)cc1-n1ncc2cc(C3=CCOCC3)ccc21 (stereo not shown) [Example 42]
< 1000 nM,–,[O-][s+]1nc(O)cc1-n1ncc2cc(-c3ccccn3)ccc21 (stereo not shown) [Example 43]
< 1000 nM,–,CC(C)(C)OC(=O)N1CC=C(c2ccc3c(cnn3-c3cc(O)n[s+]3[O-])c2)CC1 (stereo not shown) [Example 44]
1000 to 5000 nM,–,Nc1ccc(-c2ccc3c(cnn3-c3cc(O)n[s+]3[O-])c2)cn1 (stereo not shown) [Example 45]
< 1000 nM,–,[O-][s+]1nc(O)cc1-n1ncc2cc(-c3ccc(C4CC4)nc3)ccc21 (stereo not shown) [Example 46]
1000 to 5000 nM,–,COc1ccncc1-c1ccc2c(cnn2-c2cc(O)n[s+]2[O-])c1 (stereo not shown) [Example 47]
< 1000 nM,–,Cc1cncc(-c2ccc3c(cnn3-c3cc(O)n[s+]3[O-])c2)c1 (stereo not shown) [Example 49]
< 1000 nM,–,Cn1cc(-c2ccc3c(cnn3-c3cc(O)n[s+]3[O-])c2)cn1 (stereo not shown) [Example 50]
5000 to 10000 nM,–,[O-][s+]1nc(O)cc1-n1ncc2cc(-c3cn[nH]c3)ccc21 (stereo not shown) [Example 51]

EC50 [1],EC50 [2],SMILES
< 1000 nM,–,CN1CCN(c2cc(-c3ccc4c(cnn4-c4cc(O)n[s+]4[O-])c3)ccn2)CC1 (stereo not shown) [Example 52]
< 1000 nM,–,CN1CCN(c2cc(-c3ccc4c(cnn4-c4cc(O)n[s+]4[O-])c3)ccn2)CC1 (stereo not shown) [Example 53]
< 1000 nM,–,[O-][s+]1nc(O)cc1-n1ncc2cc(-c3cccnc3)ccc21 (stereo not shown) [Example 54]
< 1000 nM,–,COc1ccc2cnn(-c3cc(O)n[s+]3[O-])c2c1 (stereo not shown) [Example 55]
< 1000 nM,–,Cc1cncc(-c2ccc3c(cnn3-c3cc(O)n[s+]3[O-])c2)c1 (stereo not shown) [Example 56]
< 1000 nM,–,[O-][s+]1nc(O)cc1-n1ncc2cc(-c3ccncc3)ccc21 (stereo not shown) [Example 58]
< 1000 nM,–,[O-][s+]1nc(O)cc1-n1ncc2cc(-c3ccnc(N4CCOCC4)c3)ccc21 (stereo not shown) [Example 59]
< 1000 nM,–,[O-][s+]1nc(O)cc1-n1ncc2cc(-c3cnc4ccoc4c3)ccc21 (stereo not shown) [Example 61]
< 1000 nM,–,CC(C)(C)OC(=O)N1CCC(c2ccc3c(cnn3-c3cc(O)n[s+]3[O-])c2)CC1 (stereo not shown) [Example 62]
5000 to 10000 nM,–,O=C(NC1CC1)c1ccc(F)c(-c2ccc3c(cnn3-c3cc(O)n[s+]3[O-])c2)c1 (stereo not shown) [Example 63]
1000 to 5000 nM,–,O=c1[nH]ccc2cc(-c3ccc4c(cnn4-c4cc(O)n[s+]4[O-])c3)ccc12 (stereo not shown) [Example 64]
5000 to 10000 nM,–,CC(=O)NC1(c2ccc(-c3ccc4c(cnn4-c4cc(O)n[s+]4[O-])c3)cc2)CC1 (stereo not shown) [Example 65]
1000 to 5000 nM,–,CC(=O)Nc1ccc(-c2ccc3c(cnn3-c3cc(O)n[s+]3[O-])c2)cc1 (stereo not shown) [Example 66]
1000 to 5000 nM,–,O=C(NC1CC1)c1ccc(-c2ccc3c(cnn3-c3cc(O)n[s+]3[O-])c2)cc1 (stereo not shown) [Example 68]
1000 to 5000 nM,–,COc1cc2c(cnn2-c2cc(O)n[s+]2[O-])cc1Br (stereo not shown) [Example 69]
1000 to 5000 nM,–,COc1cc2c(cnn2-c2cc(O)n[s+]2[O-])cc1C1=CCN(C(=O)OC(C)(C)C)CC1 (stereo not shown) [Example 71]
< 1000 nM,–,COc1ncc(-c2ccc3c(cnn3-c3cc(O)n[s+]3[O-])c2)cc1Cl (stereo not shown) [Example 73]
< 1000 nM,–,[O-][s+]1nc(O)cc1-n1ncc2cc(-c3ccc(Oc4ccccc4)cc3)ccc21 (stereo not shown) [Example 74]
1000 to 5000 nM,–,O=C(c1ccc(-c2ccc3c(cnn3-c3cc(O)n[s+]3[O-])c2)cc1)N1CCCC1 (stereo not shown) [Example 75]
1000 to 5000 nM,–,Cn1cc2c(-c3ccc4c(cnn4-c4cc(O)n[s+]4[O-])c3)cccc2n1 (stereo not shown) [Example 76]
< 1000 nM,–,[O-][s+]1nc(O)cc1-n1ncc2cc(-c3cccc(CN4CCOCC4)c3)ccc21 (stereo not shown) [Example 77]
1000 to 5000 nM,–,[O-][s+]1nc(O)cc1-n1ncc2ccc(-c3ccccc3)cc21 (stereo not shown) [Example 78]
1000 to 5000 nM,–,[O-][s+]1nc(O)cc1-n1ncc2c(-c3ccccc3)cccc21 (stereo not shown) [Example 79]
5000 to 10000 nM,–,[O-][s+]1nc(O)cc1-n1ncc2c(-c3cncnc3)cccc21 (stereo not shown) [Example 81]
< 1000 nM,–,[2H]c1cccc(-c2ccc3c(cnn3-c3cc(O)n[s+]3[O-])c2)n1 (stereo not shown) [Example 82]
